Data from the supplement of paper PMC10307832.

Legend:
Test in all cases: relative viability (nuclei count vs DMSO), 5 days (fraction); higher = more cells survive
Vandetanib + Decitabine = compound: COc1cc2/c(=N/c3ccc(Br)cc3F)nc[nH]c2cc1OCC1CCN(C)CC1 [Vandetanib] + Nc1ncn([C@H]2C[C@H](O)[C@@H](CO)O2)c(=O)n1 [Decitabine] (partner 2 µM)
How it was run: (§1)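 Five library-drug doses in √10 steps were combined with a fixed anchor-drug dose, or a single drug was given alone, by pin tool to lung cancer cell lines in 1536-well plates the day after seeding. Nuclei were stained and counted after 5 days. Relative viability is the nuclei count in treated wells over that in vehicle wells, taken as the median of duplicate plates.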

[1] = compound: C1=CC=C2C(=C1)N=C(S2)C(C#N)C3=NC(=NC=C3)NCCC4=CN=CC=C4 + COc1cccc2cc(-c3nc([C@H]4CC[C@H](C(=O)O)CC4)n4ncnc(N)c34)[nH]c12 [OSI-027] (partner 0.5 µM)
How it was run: as §1

Vandetanib + Lapatinib = compound: COc1cc2/c(=N/c3ccc(Br)cc3F)nc[nH]c2cc1OCC1CCN(C)CC1 [Vandetanib] + CS(=O)(=O)CCNCc1ccc(-c2ccc3ncnc(Nc4ccc(OCc5cccc(F)c5)c(Cl)c4)c3c2)o1 [Lapatinib] (partner 2 µM)
How it was run: as §1

[2] = compound: C1=CC=C2C(=C1)N=C(S2)C(C#N)C3=NC(=NC=C3)NCCC4=CN=CC=C4 + O=C(CCCCCCC(=O)Nc1ccccc1)NO [Vorinostat] (partner 1 µM)
How it was run: as §1

| Cell Line | relative viability (Vandetanib + Decitabine; first compound 0.02 µM) | relative viability (Vandetanib + Decitabine; first compound 0.06325 µM) | relative viability (Vandetanib + Decitabine; first compound 0.2 µM) | relative viability (Vandetanib + Decitabine; first compound 0.6325 µM) | relative viability (Vandetanib + Decitabine; first compound 2 µM) | relative viability ([1]; first compound 0.005 µM) | relative viability ([1]; first compound 0.01581 µM) | relative viability ([1]; first compound 0.05 µM) | relative viability ([1]; first compound 0.1581 µM) | relative viability ([1]; first compound 0.5 µM) | relative viability (Vandetanib + Lapatinib; first compound 0.02 µM) | relative viability (Vandetanib + Lapatinib; first compound 0.06325 µM) | relative viability (Vandetanib + Lapatinib; first compound 0.2 µM) | relative viability (Vandetanib + Lapatinib; first compound 0.6325 µM) | relative viability (Vandetanib + Lapatinib; first compound 2 µM) | relative viability ([2]; first compound 0.005 µM) | relative viability ([2]; first compound 0.01581 µM) | relative viability ([2]; first compound 0.05 µM) | relative viability ([2]; first compound 0.1581 µM) | relative viability ([2]; first compound 0.5 µM) |
| --- | --- | --- | --- | --- | --- | --- | --- | --- | --- | --- | --- | --- | --- | --- | --- | --- | --- | --- | --- | --- |
| LXF-289 | 0.376 | 0.382 | 0.362 | 0.348 | 0.393 | 0.515 | 0.863 | 0.797 | 0.846 | 0.589 | 0.899 | 0.842 | 0.89 | 0.871 | 0.887 | 0.688 | 0.862 | 0.811 | 1 | 0.729 |
| NCI-H23 | 0.358 | 0.328 | 0.346 | 0.293 | 0.325 | 0.566 | 0.552 | 0.474 | 0.601 | 0.614 | 1.07 | 0.971 | 0.969 | 1.28 | 0.962 | – | 0.504 | 0.529 | 0.804 | 0.627 |
| NCI-H322M | 0.688 | 0.658 | 0.763 | 0.718 | 0.577 | 0.515 | 0.463 | 0.529 | 0.585 | 0.685 | 0.6 | 0.534 | 0.567 | 0.516 | 0.5 | 0.771 | 0.842 | 0.789 | 0.9 | 0.935 |
| NCI-H358 | 0.181 | 0.203 | 0.208 | 0.232 | 0.19 | 0.726 | 0.749 | 0.805 | 0.913 | 0.739 | 0.38 | 0.397 | 0.445 | 0.419 | 0.434 | 0.568 | 0.642 | 0.557 | 0.708 | 0.558 |
| NCI-H460 | 0.459 | 0.446 | 0.338 | 0.532 | 0.49 | 0.281 | 0.735 | 0.67 | 0.727 | 0.238 | 0.878 | 0.962 | 0.969 | 0.951 | 0.874 | – | 0.651 | 0.721 | 0.782 | 0.354 |
| NCI-H520 | 0.496 | 0.483 | 0.429 | 0.495 | 0.502 | 0.199 | 0.261 | 0.222 | 0.32 | 0.272 | 0.679 | 0.807 | 0.918 | 0.936 | 0.831 | 0.532 | 0.858 | 0.667 | 0.826 | 0.707 |
| NCI-H596 | 0.986 | 0.98 | 0.983 | 0.979 | 0.978 | 0.541 | 0.682 | 0.595 | 0.826 | 0.674 | 1.1 | 0.912 | 1.11 | 1.1 | 0.947 | 0.463 | 0.446 | 0.716 | 0.654 | 0.676 |
| NCI-H647 | 0.356 | 0.396 | 0.349 | 0.35 | 0.41 | 0.638 | 0.585 | 0.491 | 0.756 | 0.527 | 1.02 | 1.09 | 1.09 | 1.08 | 0.999 | 0.427 | 0.553 | 0.411 | 0.661 | 0.605 |
| NCI-H650 | 0.354 | 0.324 | 0.322 | 0.351 | 0.329 | 0.521 | – | 0.544 | 0.475 | 0.486 | 1.06 | 1.04 | 0.636 | 0.896 | 0.308 | 0.389 | 0.392 | 0.499 | 0.488 | 0.393 |
| NCI-H661 | 0.536 | 0.556 | 0.527 | 0.46 | 0.446 | 0.638 | 0.687 | 0.689 | 0.748 | 0.682 | 0.547 | 0.532 | 0.555 | 0.607 | 0.365 | 0.81 | 0.85 | 0.73 | 0.831 | 0.862 |
| NCI-H727 | 0.827 | 0.798 | 0.938 | 0.885 | 0.492 | 0.814 | 0.526 | 0.568 | 0.748 | 0.508 | 0.847 | 0.661 | 0.786 | 0.91 | 0.625 | 1.38 | 1.08 | 1.1 | 1.38 | 1.37 |
| NCI-H838 | 0.489 | 0.399 | 0.503 | 0.457 | 0.451 | 0.4 | 0.351 | 0.361 | 0.459 | 0.396 | 0.937 | 0.953 | 0.958 | 0.958 | 0.99 | 0.751 | 0.747 | 0.661 | 0.707 | 0.681 |
| NCI-H1355 | 0.351 | 0.357 | 0.369 | 0.339 | 0.363 | 0.402 | 0.348 | 0.341 | 0.411 | 0.369 | 0.984 | 0.926 | 0.963 | 1.05 | 0.924 | 0.596 | 0.625 | 0.649 | 0.67 | 0.564 |
| NCI-H1395 | 0.737 | 0.704 | 0.655 | 0.788 | 0.74 | 0.606 | 0.515 | 0.569 | 0.843 | 0.658 | 0.963 | 0.875 | 1.03 | 0.936 | 0.864 | 0.556 | – | 0.707 | 0.788 | 0.611 |
| NCI-H1437 | 0.534 | 0.559 | 0.556 | 0.551 | 0.545 | 0.855 | 0.817 | 0.93 | 0.917 | 0.723 | 0.758 | 0.767 | 0.764 | 0.76 | 0.806 | 0.896 | 0.871 | 0.813 | 0.824 | 0.755 |
| NCI-H1650 | 0.361 | 0.451 | 0.413 | 0.502 | 0.403 | 0.557 | 0.56 | 0.611 | 0.689 | 0.354 | 0.704 | 0.734 | – | 0.988 | 0.765 | 0.472 | 0.597 | 0.535 | 0.676 | 0.439 |
